{
  "source": "ChEMBL document CHEMBL1201862",
  "about": "“PubChem BioAssay data set” (2004)",
  "test_in_all_cases": "NCI tumour cell line growth inhibition, 48 h",
  "key": {"786-0": {"system": "786-0"}, "A498": {"system": "A498"}, "A549": {"system": "A549"}, "ACHN": {"system": "ACHN"}, "BT-549": {"system": "BT-549"}, "CAKI-1": {"system": "CAKI-1"}, "CCRF-CEM": {"system": "CCRF-CEM"}, "COLO 205": {"system": "COLO 205"}, "DU-145": {"system": "DU-145"}, "EKVX": {"system": "EKVX"}, "HCC 2998": {"system": "HCC 2998"}, "HCT-116": {"system": "HCT-116"}, "HCT-15": {"system": "HCT-15"}, "HL-60": {"system": "HL-60"}, "HOP-62": {"system": "HOP-62"}, "HT-29": {"system": "HT-29"}, "Hs-578T": {"system": "Hs-578T"}, "IGROV-1": {"system": "IGROV-1"}, "K562": {"system": "K562"}, "KM12": {"system": "KM12"}, "LOX IMVI": {"system": "LOX IMVI"}, "M14": {"system": "M14"}, "MCF7": {"system": "MCF7"}, "MDA-MB-231": {"system": "MDA-MB-231"}, "MDA-N": {"system": "MDA-N"}, "MOLT-4": {"system": "MOLT-4"}, "Malme-3M": {"system": "Malme-3M"}, "NCI-H226": {"system": "NCI-H226"}, "NCI-H23": {"system": "NCI-H23"}, "NCI-H522": {"system": "NCI-H522"}, "NCI/ADR-RES": {"system": "NCI/ADR-RES"}, "OVCAR-3": {"system": "OVCAR-3"}, "OVCAR-4": {"system": "OVCAR-4"}, "OVCAR-5": {"system": "OVCAR-5"}, "OVCAR-8": {"system": "OVCAR-8"}, "PC-3": {"system": "PC-3"}, "RPMI-8226": {"system": "RPMI-8226"}, "RXF 393": {"system": "RXF 393"}, "SF-268": {"system": "SF-268"}, "SF-295": {"system": "SF-295"}, "SF-539": {"system": "SF-539"}, "SK-MEL-28": {"system": "SK-MEL-28"}, "SK-MEL-2": {"system": "SK-MEL-2"}, "SK-MEL-5": {"system": "SK-MEL-5"}, "SK-OV-3": {"system": "SK-OV-3"}, "SN12C": {"system": "SN12C"}, "SNB-19": {"system": "SNB-19"}, "SNB-75": {"system": "SNB-75"}, "SR": {"system": "SR"}, "SW-620": {"system": "SW-620"}, "T47D": {"system": "T47D"}, "TK-10": {"system": "TK-10"}, "U-251": {"system": "U-251"}, "UACC-257": {"system": "UACC-257"}, "UACC-62": {"system": "UACC-62"}, "UO-31": {"system": "UO-31"}},
  "note": "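1) Cells in 96-well plates. 2) Compound, 48 h, 5 concentrations. 3) Linear interpolation between surrounding doses. 4) Unreached endpoint = highest concentration. At the GI50, growth is halved.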 The source made the active and inactive calls. Cut-off read from the data, not from the text of the source: active = GI50 up to about 1.1 µM and inactive = higher.",
  "data": [
    {"smiles": "CC(C)CC(N)C(=O)Nc1ccc2ccccc2c1", "note": "(stereo unspecified)", "values": [
      {"measurement": "GI50", "setting": "786-0", "value": "> 100 µM (inactive)"},
      {"measurement": "GI50", "setting": "A498", "value": "> 100 µM (inactive)"},
      {"measurement": "GI50", "setting": "A549", "value": "> 100 µM (inactive)"},
      {"measurement": "GI50", "setting": "ACHN", "value": "> 100 µM (inactive)"},
      {"measurement": "GI50", "setting": "BT-549", "value": "> 100 µM (inactive)"},
      {"measurement": "GI50", "setting": "CAKI-1", "value": "63.1 µM (inactive)"},
      {"measurement": "GI50", "setting": "CCRF-CEM", "value": "> 100 µM (inactive)"},
      {"measurement": "GI50", "setting": "COLO 205", "value": "> 100 µM (inactive)"},
      {"measurement": "GI50", "setting": "DU-145", "value": "> 100 µM (inactive)"},
      {"measurement": "GI50", "setting": "EKVX", "value": "> 100 µM (inactive)"},
      {"measurement": "GI50", "setting": "HCC 2998", "value": "> 100 µM (inactive)"},
      {"measurement": "GI50", "setting": "HCT-116", "value": "> 100 µM (inactive)"},
      {"measurement": "GI50", "setting": "HCT-15", "value": "> 100", "unit": "µM"},
      {"measurement": "GI50", "setting": "HL-60", "value": "98.2 µM (inactive)"},
      {"measurement": "GI50", "setting": "HOP-62", "value": "> 100 µM (inactive)"},
      {"measurement": "GI50", "setting": "HT-29", "value": "> 100 µM (inactive)"},
      {"measurement": "GI50", "setting": "Hs-578T", "value": "> 100 µM (inactive)"},
      {"measurement": "GI50", "setting": "IGROV-1", "value": "> 100 µM (inactive)"},
      {"measurement": "GI50", "setting": "K562", "value": "> 100 µM (inactive)"},
      {"measurement": "GI50", "setting": "KM12", "value": "316 nM (active)"},
      {"measurement": "GI50", "setting": "LOX IMVI", "value": "> 100 µM (inactive)"},
      {"measurement": "GI50", "setting": "M14", "value": "> 100 µM (inactive)"},
      {"measurement": "GI50", "setting": "MCF7", "value": "> 100 µM (inactive)"},
      {"measurement": "GI50", "setting": "MDA-MB-231", "value": "> 100 µM (inactive)"},
      {"measurement": "GI50", "setting": "MDA-N", "value": "> 100 µM (inactive)"},
      {"measurement": "GI50", "setting": "MOLT-4", "value": "> 100 µM (inactive)"},
      {"measurement": "GI50", "setting": "Malme-3M", "value": "> 100 µM (inactive)"},
      {"measurement": "GI50", "setting": "NCI-H226", "value": "67.8 µM (inactive)"},
      {"measurement": "GI50", "setting": "NCI-H23", "value": "> 100 µM (inactive)"},
      {"measurement": "GI50", "setting": "NCI-H522", "value": "> 100 µM (inactive)"},
      {"measurement": "GI50", "setting": "NCI/ADR-RES", "value": "> 100 µM (inactive)"},
      {"measurement": "GI50", "setting": "OVCAR-3", "value": "8.2 µM (inactive)"},
      {"measurement": "GI50", "setting": "OVCAR-4", "value": "9.4 µM (inactive)"},
      {"measurement": "GI50", "setting": "OVCAR-5", "value": "> 100 µM (inactive)"},
      {"measurement": "GI50", "setting": "OVCAR-8", "value": "> 100 µM (inactive)"},
      {"measurement": "GI50", "setting": "PC-3", "value": "> 100 µM (inactive)"},
      {"measurement": "GI50", "setting": "RPMI-8226", "value": "> 100 µM (inactive)"},
      {"measurement": "GI50", "setting": "RXF 393", "value": "> 100 µM (inactive)"},
      {"measurement": "GI50", "setting": "SF-268", "value": "> 100 µM (inactive)"},
      {"measurement": "GI50", "setting": "SF-295", "value": "> 100 µM (inactive)"},
      {"measurement": "GI50", "setting": "SF-539", "value": "> 100 µM (inactive)"},
      {"measurement": "GI50", "setting": "SK-MEL-28", "value": "> 100 µM (inactive)"},
      {"measurement": "GI50", "setting": "SK-MEL-2", "value": "> 100 µM (inactive)"},
      {"measurement": "GI50", "setting": "SK-MEL-5", "value": "> 100 µM (inactive)"},
      {"measurement": "GI50", "setting": "SK-OV-3", "value": "> 100 µM (inactive)"},
      {"measurement": "GI50", "setting": "SN12C", "value": "> 100 µM (inactive)"},
      {"measurement": "GI50", "setting": "SNB-19", "value": "> 100 µM (inactive)"},
      {"measurement": "GI50", "setting": "SNB-75", "value": "> 100 µM (inactive)"},
      {"measurement": "GI50", "setting": "SR", "value": "> 100 µM (inactive)"},
      {"measurement": "GI50", "setting": "SW-620", "value": "> 100 µM (inactive)"},
      {"measurement": "GI50", "setting": "T47D", "value": "> 100 µM (inactive)"},
      {"measurement": "GI50", "setting": "TK-10", "value": "> 100 µM (inactive)"},
      {"measurement": "GI50", "setting": "U-251", "value": "> 100 µM (inactive)"},
      {"measurement": "GI50", "setting": "UACC-257", "value": "> 100 µM (inactive)"},
      {"measurement": "GI50", "setting": "UACC-62", "value": "> 100 µM (inactive)"},
      {"measurement": "GI50", "setting": "UO-31", "value": "> 100 µM (inactive)"}
    ]}
  ]
}
